How the values were obtained:
Type in all cases: in vivo
[1] = tested on: redroot pigweed (Amaranthus retroflexus, AMARE); assay: Pre-emerge test, greenhouse herbicide activity screening; settings: pre-emerge, rated 14 days after application, 0 = no damage, 100 = complete death
Procedure, shortened: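 Compounds in acetone were track-sprayed at 187 l/ha, 15–1000 g ai/ha, onto sandy loam pots. Pre-emerge seeds were sown one day before spraying, with surface watering afterwards. Post-emerge plants were at the 2–3 leaf stage and sprayed with 0.25% v/v non-ionic surfactant. Injury was rated 0–100 at 14 days.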

[2] = tested on: barnyardgrass (Echinochloa crus-galli, ECHCG); assay: as above; settings: pre-emerge, rated 14 days after application, 0 = no damage, 100 = complete death
Procedure, shortened: (§1)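 Sandy loam pots; pre-emerge: sown 1 d pre-spray, surface-watered after, then bottom-watered. Post-emerge: sown 8–21 d before, 2–3 leaf stage, + 0.25% v/v NIS, bottom-watered. Acetone, 187 l/ha track spray, 15–1000 g ai/ha. 0–100 injury score, day 14.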

[3] = tested on: common ragweed (Ambrosia artemisizfolia L., AMBEL); assay: as above; settings: pre-emerge, rated 14 days after application, 0 = no damage, 100 = complete death
Procedure, shortened: as §1

[4] = tested on: green foxtail (Setaria viridis, SETVI); assay: as above; settings: pre-emerge, rated 14 days after application, 0 = no damage, 100 = complete death
Procedure, shortened: as §1

[5] = tested on: ivyleaf morningglory (Ipomoea hederacea, IPOHE); assay: as above; settings: pre-emerge, rated 14 days after application, 0 = no damage, 100 = complete death
Procedure, shortened: as §1

[6] = tested on: johnsongrass (Sorghum halepense, SORHA); assay: as above; settings: pre-emerge, rated 14 days after application, 0 = no damage, 100 = complete death
Procedure, shortened: as §1

[7] = tested on: lambsquarters (Chenopodium album, CHEAL); assay: as above; settings: pre-emerge, rated 14 days after application, 0 = no damage, 100 = complete death
Procedure, shortened: as §1

[8] = tested on: large crabgrass (Digitaria sanguinalis, DIGSA); assay: as above; settings: pre-emerge, rated 14 days after application, 0 = no damage, 100 = complete death
Procedure, shortened: as §1

[9] = tested on: sicklepod (Cassia obtusifolia, CASOB); assay: as above; settings: pre-emerge, rated 14 days after application, 0 = no damage, 100 = complete death
Procedure, shortened: as §1

[10] = tested on: velvetleaf (Abutilon theophrasti, ABUTH); assay: as above; settings: pre-emerge, rated 14 days after application, 0 = no damage, 100 = complete death
Procedure, shortened: as §1

[11] = tested on: field corn (Zea mays L., var. Dekalb 535, CORN); assay: Pre-emerge test, crop safety; settings: pre-emerge, rated 14 days after application, 0 = no damage, 100 = complete death
Procedure, shortened: (§2)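 Plants grown in 10 cm pots of sandy loam mix received acetone-dissolved compounds through a moving flat-fan nozzle. Doses ranged from 15 to 1000 g ai/ha. Pre-emerge pots were seeded one day earlier, post-emerge pots 8–21 days earlier. Fourteen days on, each pot was graded 0–100 for damage.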

[12] = tested on: upland rice (Oryza sp., var. Tebonnet, RICE); assay: Pre-emerge test, crop safety; settings: pre-emerge, rated 14 days after application, 0 = no damage, 100 = complete death
Procedure, shortened: as §2

[13] = tested on: barnyardgrass (Echinochloa crus-galli, ECHCG); assay: Post-emerge test, greenhouse herbicide activity screening; settings: phytotoxicity rating 0-100 (0 no damage, 100 complete death), 14 days after application
Procedure, shortened: (§3)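 Each test used a mechanized track sprayer delivering 187 l/ha of acetone solution at 15–1000 g ai/ha. Post-emerge foliage at 2–3 leaves was treated with added 0.25% v/v non-ionic surfactant and bottom-watered only. Injury was assessed on day 14, where 100 means total kill.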

[14] = tested on: common ragweed (Ambrosia artemisizfolia L., AMBEL); assay: as above; settings: phytotoxicity rating 0-100 (0 no damage, 100 complete death), 14 days after application
Procedure, shortened: as §3

[15] = tested on: green foxtail (Setaria viridis, SETVI); assay: as above; settings: phytotoxicity rating 0-100 (0 no damage, 100 complete death), 14 days after application
Procedure, shortened: as §3

[16] = tested on: ivyleaf morningglory (Ipomoea hederacea, IPOHE); assay: as above; settings: phytotoxicity rating 0-100 (0 no damage, 100 complete death), 14 days after application
Procedure, shortened: as §3

[17] = tested on: johnsongrass (Sorghum halepense, SORHA); assay: as above; settings: phytotoxicity rating 0-100 (0 no damage, 100 complete death), 14 days after application
Procedure, shortened: as §3

[18] = tested on: lambsquarters (Chenopodium album, CHEAL); assay: as above; settings: phytotoxicity rating 0-100 (0 no damage, 100 complete death), 14 days after application
Procedure, shortened: as §3

[19] = tested on: large crabgrass (Digitaria sanguinalis, DIGSA); assay: as above; settings: phytotoxicity rating 0-100 (0 no damage, 100 complete death), 14 days after application
Procedure, shortened: as §3

[20] = tested on: redroot pigweed (Amaranthus retroflexus, AMARE); assay: as above; settings: phytotoxicity rating 0-100 (0 no damage, 100 complete death), 14 days after application
Procedure, shortened: as §3

[21] = tested on: sicklepod (Cassia obtusifolia, CASOB); assay: as above; settings: phytotoxicity rating 0-100 (0 no damage, 100 complete death), 14 days after application
Procedure, shortened: as §3

[22] = tested on: velvetleaf (Abutilon theophrasti, ABUTH); assay: as above; settings: phytotoxicity rating 0-100 (0 no damage, 100 complete death), 14 days after application
Procedure, shortened: as §3

[23] = tested on: field corn (Zea mays L., var. Dekalb 535, CORN); assay: Post-emerge test, crop safety; settings: phytotoxicity rating 0-100 (0 no damage, 100 complete death), 14 days after application
Procedure, shortened: as §1

[24] = tested on: upland rice (Oryza sp., var. Tebonnet, RICE); assay: Post-emerge test, crop safety; settings: phytotoxicity rating 0-100 (0 no damage, 100 complete death), 14 days after application
Procedure, shortened: as §1

COc1c(Cl)cc(F)c(-n2c(=O)cc(C(F)(F)F)n(C)c2=O)c1N(C)C [Compound 1-11, 3-(4-chloro-2-dimehtylainino-6-fluoro-3-methoxyphenyl)-1-methyl-6-trifluoromethyl-2,4(1H, 3H)-pyrimidinedione]
Pre-emerge Herbicidal Activity AMARE (phytotoxicity rating, scale 0-100) ([1]; 63 g ai/ha): 100 | Pre-emerge Herbicidal Activity AMARE (phytotoxicity rating, scale 0-100) ([1]; 250 g ai/ha): 100 | Pre-emerge Herbicidal Activity ECHCG (phytotoxicity rating, scale 0-100) ([2]; 63 g ai/ha): 0 | Pre-emerge Herbicidal Activity ECHCG (phytotoxicity rating, scale 0-100) ([2]; 250 g ai/ha): 95 | Pre-emerge Herbicidal Activity AMBEL (phytotoxicity rating, scale 0-100) ([3]; 63 g ai/ha): 50 | Pre-emerge Herbicidal Activity AMBEL (phytotoxicity rating, scale 0-100) ([3]; 250 g ai/ha): 100 | Pre-emerge Herbicidal Activity SETVI (phytotoxicity rating, scale 0-100) ([4]; 63 g ai/ha): 80 | Pre-emerge Herbicidal Activity SETVI (phytotoxicity rating, scale 0-100) ([4]; 250 g ai/ha): 100 | Pre-emerge Herbicidal Activity IPOHE (phytotoxicity rating, scale 0-100) ([5]; 63 g ai/ha): 20 | Pre-emerge Herbicidal Activity IPOHE (phytotoxicity rating, scale 0-100) ([5]; 250 g ai/ha): 90 | Pre-emerge Herbicidal Activity SORHA (phytotoxicity rating, scale 0-100) ([6]; 63 g ai/ha): 90 | Pre-emerge Herbicidal Activity SORHA (phytotoxicity rating, scale 0-100) ([6]; 250 g ai/ha): 98 | Pre-emerge Herbicidal Activity CHEAL (phytotoxicity rating, scale 0-100) ([7]; 63 g ai/ha): 100 | Pre-emerge Herbicidal Activity CHEAL (phytotoxicity rating, scale 0-100) ([7]; 250 g ai/ha): 100 | Pre-emerge Herbicidal Activity DIGSA (phytotoxicity rating, scale 0-100) ([8]; 63 g ai/ha): 90 | Pre-emerge Herbicidal Activity DIGSA (phytotoxicity rating, scale 0-100) ([8]; 250 g ai/ha): 100 | Pre-emerge Herbicidal Activity CASOB (phytotoxicity rating, scale 0-100) ([9]; 63 g ai/ha): 20 | Pre-emerge Herbicidal Activity CASOB (phytotoxicity rating, scale 0-100) ([9]; 250 g ai/ha): 60 | Pre-emerge Herbicidal Activity ABUTH (phytotoxicity rating, scale 0-100) ([10]; 63 g ai/ha): 100 | Pre-emerge Herbicidal Activity ABUTH (phytotoxicity rating, scale 0-100) ([10]; 250 g ai/ha): 100 | Pre-emerge crop damage CORN (phytotoxicity rating, scale 0-100) ([11]; 63 g ai/ha): 0 | Pre-emerge crop damage CORN (phytotoxicity rating, scale 0-100) ([11]; 250 g ai/ha): 60 | Pre-emerge crop damage RICE (phytotoxicity rating, scale 0-100) ([12]; 63 g ai/ha): 20 | Pre-emerge crop damage RICE (phytotoxicity rating, scale 0-100) ([12]; 250 g ai/ha): 70 | Post-emerge Herbicidal Activity ECHCG ([13]; 63 g ai/ha): 0 | Post-emerge Herbicidal Activity ECHCG ([13]; 250 g ai/ha): 0 | Post-emerge Herbicidal Activity AMBEL ([14]; 63 g ai/ha): 10 | Post-emerge Herbicidal Activity AMBEL ([14]; 250 g ai/ha): 10 | Post-emerge Herbicidal Activity SETVI ([15]; 63 g ai/ha): 0 | Post-emerge Herbicidal Activity SETVI ([15]; 250 g ai/ha): 50 | Post-emerge Herbicidal Activity IPOHE ([16]; 63 g ai/ha): 40 | Post-emerge Herbicidal Activity IPOHE ([16]; 250 g ai/ha): 70 | Post-emerge Herbicidal Activity SORHA ([17]; 63 g ai/ha): 0 | Post-emerge Herbicidal Activity SORHA ([17]; 250 g ai/ha): 0 | Post-emerge Herbicidal Activity CHEAL ([18]; 63 g ai/ha): 50 | Post-emerge Herbicidal Activity CHEAL ([18]; 250 g ai/ha): 95 | Post-emerge Herbicidal Activity DIGSA ([19]; 63 g ai/ha): 0 | Post-emerge Herbicidal Activity DIGSA ([19]; 250 g ai/ha): 0 | Post-emerge Herbicidal Activity AMARE ([20]; 63 g ai/ha): 40 | Post-emerge Herbicidal Activity AMARE ([20]; 250 g ai/ha): 60 | Post-emerge Herbicidal Activity CASOB ([21]; 63 g ai/ha): 0 | Post-emerge Herbicidal Activity CASOB ([21]; 250 g ai/ha): 0 | Post-emerge Herbicidal Activity ABUTH ([22]; 63 g ai/ha): 70 | Post-emerge Herbicidal Activity ABUTH ([22]; 250 g ai/ha): 100 | Post-emerge Herbicidal Activity CORN (crop damage) ([23]; 63 g ai/ha): 0 | Post-emerge Herbicidal Activity CORN (crop damage) ([23]; 250 g ai/ha): 0 | Post-emerge Herbicidal Activity RICE (crop damage) ([24]; 63 g ai/ha): 0 | Post-emerge Herbicidal Activity RICE (crop damage) ([24]; 250 g ai/ha): 0
